Data on five molecules can be found in ChEMBL document CHEMBL1201862, “PubChem BioAssay data set” (2004).

Assay [1] is described as follows: HEp-2 cell cytotoxicity, dose response, cytotoxicity control for RSV inhibitor project, HTS (AID 2410). Type of assay: functional. The note with it: human respiratory syncytial virus.
The nature of assay [2]: cytotoxicity toward NIH3T3 fibroblasts, dose response, counter-screen, cell-based, ATP luminescence, mouse fibroblasts (AID 2010).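 Note: cells exposed to compound for about 90 hours before reading.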 It is filed as functional.
Assay [3] in a line: inhibitors of intracellular T. cruzi replication, confirmation, NIH3T3 host cells, beta-gal luminescence (AID 2044).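 Note: intracellular parasites grown in NIH/3T3 mouse fibroblasts as host cells; luminescent beta-galactosidase reporter signal from transgenic T. cruzi replicating inside host cells; inhibitors lower the luminescence signal.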 It is filed as functional, cell-based.
Assay [4] deals with 5-hydroxytryptamine receptor 1E (Homo sapiens, UniProt P28566). Nature of the assay: Counterscreen assay for S1P3 antagonists: Dose response cell-based high throughput screening assay to identify antagonists of the 5-Hydroxytryptamine Receptor Subtype 1E (5HT1E). [Related pubchem assays: 1429, 485 ]. It is filed as functional. Background: Counterscreens check selectivity or assay interference.

For assay [5], the target named is Sphingosine 1-phosphate receptor 3 (Homo sapiens, UniProt Q99500). Nature of the assay: Dose response cell-based high throughput screening assay for antagonists of the Sphingosine 1-Phosphate Receptor 3 (S1P3). [Related pubchem assays: 1429, 485 ]. It is filed as functional.
For the next assay, the target named is T1, Bcl-2-like protein 10 (Homo sapiens, UniProt Q9HD36).
T1 sequence (Q9HD36 whole entry): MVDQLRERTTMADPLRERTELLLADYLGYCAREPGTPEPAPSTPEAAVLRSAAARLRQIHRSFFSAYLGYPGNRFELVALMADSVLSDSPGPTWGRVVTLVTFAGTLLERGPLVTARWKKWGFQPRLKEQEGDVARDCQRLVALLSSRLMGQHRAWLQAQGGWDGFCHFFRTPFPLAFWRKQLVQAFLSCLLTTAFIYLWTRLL
Nature of the assay: Biochemical TR3 FP assay of Bcl-B inhibitor potency, EC50 (AID 1243). It is filed as functional.

Assay [6] in a line: A High Throughput Confirmatory Assay used to Identify Novel Compounds that Inhibit Mycobacterium Tuberculosis in the absence of Glycerol. It is filed as functional.
Assay [7] can be described thus: inhibitors of HIV Env-driven cell fusion, dose response, cherry-pick (AID 652057). Type of assay: functional, cell-based.
Assay [8] is described as follows: inhibitors of clade B AD8 Env fusion, dose response, cell-based, cherry-pick (AID 652062).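 Note: luciferase signal from cell-cell fusion driven by HIV-1 clade B AD8 Env; potency is for inhibitors of fusion seen as a drop in luminescence.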 It is filed as functional.
Assay [9] is described as follows: MC4R antagonists, dose response, counter-screen for LGR2 antagonist project, cell-based, plate reader, cherry pick (AID 743444).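 Note: transfected HEK 293 cells stimulated with alpha-MSH peptide; potency of inhibitors of the alpha-MSH evoked signal.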 It is filed as functional.
The nature of assay [10]: HepG2 cell cytotoxicity, dose response, cytotoxicity control, plate reader, cherry-pick, antagonist series (AID 743416). Type of assay: functional, cell-based.
Assay [11] is described as follows: Luminescence-based counterscreen assay for KLF5 inhibitors: dose response cell-based high throughput screening assay to identify cytotoxic compounds using the IEC-6 intestinal epithelial cell line. [Related pubchem assays: 1700 (Primary screen.), 1834 (Confirmation screen.), 1858 (Summary AID.), 1905 (Counterscreen.)]. It is filed as functional.
Assay [12] is described as follows: reduction of Shn3 3'UTR firefly luciferase signal, dose response, Schnurri-3 inhibitor project, cell-based, Clone20 osteoblasts, cherry-pick, set 2 (AID 720490).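 Note: actives lower the luminescence signal as inhibitors.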 Type of assay: functional.
Assay [13] is described as follows: off-target signal loss in HeLa-CEM21 co-culture – HeLa F-luc CTL cells, cherry-picked, counter-screen for HIV-1 Env fusion inhibitor project, dose response (AID 652040).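 Note: potency for signal decrease marking cytotoxic or nonspecific inhibition.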 It is filed as functional, cell-based.
Assay [14] is described as follows: LGR2 antagonists, dose response, cell-based, HEK293, CRE-luciferase reporter, cherry pick, set 2 (AID 743343).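 Note: transfected cells were stimulated with diluted bursicon conditioned medium after compound addition.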 Type of assay: functional. In general terms: Reporter assays use an easily measured gene product as a stand-in for the process of interest.
Assay [15] in a line: Shn3 3'UTR reporter inhibitors, dose response, cell-based, Clone20 osteoblasts, firefly luciferase, cherry-picked (AID 624132).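 Note: firefly luciferase luminescence from reporter carrying the Shn3 3'UTR in osteoblasts.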 Type of assay: functional.
Assay [16] in a line: cytotoxicity in HEK-293T cells, dose response, cytotoxicity control for TCR NF-kB inhibitor project, luminescence, T-cell screen hits (AID 489026).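 Note: cells exposed to compound about 14 hours before the viability readout.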 It is filed as functional, cell-based.
Assay [17] addresses Induced myeloid leukemia cell differentiation protein Mcl-1 (Homo sapiens, UniProt Q07820). It is filed as functional.
A further assay concerns the target T2, NADPH oxidase 1 (Homo sapiens, UniProt Q9Y5S8).
T2 sequence (Q9Y5S8 whole entry): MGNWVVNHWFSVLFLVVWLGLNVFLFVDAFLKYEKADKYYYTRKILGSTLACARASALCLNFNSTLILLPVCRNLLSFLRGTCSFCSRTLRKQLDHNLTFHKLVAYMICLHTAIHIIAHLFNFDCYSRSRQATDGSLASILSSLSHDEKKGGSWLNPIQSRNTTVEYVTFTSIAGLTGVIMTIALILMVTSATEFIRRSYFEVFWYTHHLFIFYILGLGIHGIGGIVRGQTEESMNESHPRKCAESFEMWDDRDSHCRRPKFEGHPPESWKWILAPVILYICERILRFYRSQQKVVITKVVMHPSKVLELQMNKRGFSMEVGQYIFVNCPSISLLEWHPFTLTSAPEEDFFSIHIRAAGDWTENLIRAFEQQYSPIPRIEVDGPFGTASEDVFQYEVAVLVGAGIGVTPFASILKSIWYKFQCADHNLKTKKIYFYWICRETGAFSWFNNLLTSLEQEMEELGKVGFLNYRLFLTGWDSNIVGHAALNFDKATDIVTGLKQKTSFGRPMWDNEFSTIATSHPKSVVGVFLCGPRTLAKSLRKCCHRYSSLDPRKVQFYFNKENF
Kind of assay: Luminescence-based cell-based dose response assay to identify inhibitors of NADPH oxidase 1 (NOX1). It is filed as functional.

Activity calls are given as the source filed them.

Chain of Induced myeloid leukemia cell differentiation protein Mcl-1 (Q07820 whole entry): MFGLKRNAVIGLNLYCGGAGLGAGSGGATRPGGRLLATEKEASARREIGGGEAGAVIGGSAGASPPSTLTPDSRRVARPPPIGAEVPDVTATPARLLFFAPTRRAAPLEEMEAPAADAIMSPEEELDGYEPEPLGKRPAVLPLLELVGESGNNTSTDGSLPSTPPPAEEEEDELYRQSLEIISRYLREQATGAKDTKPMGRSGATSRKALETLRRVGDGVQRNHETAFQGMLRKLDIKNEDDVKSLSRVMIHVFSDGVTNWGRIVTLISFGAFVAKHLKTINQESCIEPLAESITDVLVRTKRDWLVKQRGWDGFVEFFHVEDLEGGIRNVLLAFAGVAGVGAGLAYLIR
Chain of 5-hydroxytryptamine receptor 1E (P28566 whole entry): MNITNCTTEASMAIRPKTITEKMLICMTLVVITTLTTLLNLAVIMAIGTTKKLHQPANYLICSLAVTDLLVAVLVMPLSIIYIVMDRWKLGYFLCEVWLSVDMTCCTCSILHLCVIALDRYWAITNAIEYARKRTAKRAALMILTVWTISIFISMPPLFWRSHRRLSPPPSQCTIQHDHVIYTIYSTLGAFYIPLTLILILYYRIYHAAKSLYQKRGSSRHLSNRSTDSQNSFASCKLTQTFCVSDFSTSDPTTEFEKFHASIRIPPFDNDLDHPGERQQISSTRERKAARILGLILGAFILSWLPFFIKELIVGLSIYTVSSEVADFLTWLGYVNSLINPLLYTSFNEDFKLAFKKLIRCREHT
Chain of Sphingosine 1-phosphate receptor 3 (Q99500 whole entry): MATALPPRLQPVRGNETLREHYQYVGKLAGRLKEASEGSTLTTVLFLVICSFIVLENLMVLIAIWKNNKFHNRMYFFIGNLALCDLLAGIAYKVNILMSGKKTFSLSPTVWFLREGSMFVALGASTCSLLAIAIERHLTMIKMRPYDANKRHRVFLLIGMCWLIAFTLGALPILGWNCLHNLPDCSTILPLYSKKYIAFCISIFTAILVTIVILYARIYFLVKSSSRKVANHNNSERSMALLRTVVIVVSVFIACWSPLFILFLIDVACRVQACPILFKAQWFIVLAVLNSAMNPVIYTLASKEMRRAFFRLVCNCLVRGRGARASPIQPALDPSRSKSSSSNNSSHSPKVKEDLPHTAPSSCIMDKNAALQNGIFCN

In the case of `CC1C(c2ccccc2)N(C)C(c2ccccc2)CC1(O)c1ccc(F)cc1` (centres undefined), the CC50 (in general, the concentration at which the toxic effect on the cells reaches its halfway point) in assay [1] is 19.4 µM (active). The EC50 – broadly, the concentration giving half of the maximal effect – in assay [2] is > 60 µM (not active); in assay [3], 2.78 µM (active). Further, the IC50 in assay [4] and in assay [5] was > 50 µM (not active) throughout.

As for `O=C(O)C1Nc2c(cccc2[N+](=O)[O-])C2C=CCC12` (centres undefined), the EC50 on Bcl-2-like protein 10 is 1.2 µM (active).

Regarding `COC(=O)[C@@H](NC(=O)O[C@@H]1C(=O)c2ccc(OC)cc2O[C@H]1c1cccc(C(F)(F)F)c1)C(C)C`, the IC50 (as a rule, the midpoint of a concentration-inhibition curve) in assay [6] is > 100 µM (active).

`O=C(NCCc1ccccc1)c1ccc2c(c1)OCCO2`: the AC50 (commonly the concentration giving half of the maximal activity seen) in [7] was 2.05 µM (active); in [8], 3.07 µM (active); in assay [9] it was 0.885 µM (active); in assay [10], > 52 µM (inactive); in assay [12], 2.31 µM (active); in [13], 4.51 µM (active). Besides, the AC50 in [14] is 0.801 µM (active); in assay [15], 2.16 µM (active). Also, the results for the IC50 in assay [11] and in assay [16] were > 39.8 µM (not active) and > 80 µM (inactive), respectively.

Turning to `CCN(CC)c1ccc(NC(=O)Nc2cccc(C(C)=O)c2)cc1`, the IC50 in [17] was 3.13 µM (not active); at NADPH oxidase 1, 0.083 µM (active).
